Results on two compounds are retold here after patent publication US20250281410A1, “HIGH-THROUGHPUT PREPARATION OF MICROPARTICLES WITH PULSATILE RELEASE” (William Marsh Rice University, priority 2021, published 2025).

For data set [1] the following is noted: cited from earlier work.
The subject of another data set is Avastin. The experiment in a line: Release of active Avastin from microparticles with excipients, activity by ELISA. To be noted: excipients added during fabrication. The procedure: FIGS. 27A-27F show the release of Avastin from microparticles. FIG. 27A is a heat map depicting the sum of the percentage of Avastin inside the microparticles and Avastin released from the microparticles. Data is normalized to amount of Avastin filled into microparticles. […] Avastin activity was measured using an ELISA. The excipients that were studied were bovine serum albumin (BSA) and sorbitol: monosodium glutamate (MSG): magnesium chloride (MgCl2). FIGS. 27B-27I show plots of the release kinetics of the microparticle formulations of FIG. 27A. The release kinetics depicted in FIG. 27B are for a microparticle with 3 μg BSA as an excipient. The release kinetics depicted in FIG. 27C are for a microparticle with 2 μg BSA as an excipient. […]
Due to concern about the thermal stress potential involved when heating up biotherapeutics which may be desirable as a payload of the microparticles described herein, the temperature of the microparticles was measured during the sealing process to determine the peak temperature and duration of exposure to elevated temperature to quantify the thermal stress that the protein might experience (FIG. 25). […] To determine if these temperatures would damage encapsulated biotherapeutics, the stability of horseradish peroxidase (HRP), was assessed after every step in the formulation process (dispensing, drying, and sealing). […]

With `CC(C)Cn1cnc2c(N)nc3ccccc3c21` [imiquimod], the solubility in water result in data set [1] is reported as “approximately 2 μg/mL”. For the compound “Avastin: a fragile biotherapeutic used to treat certain cancers”, the “Avastin remaining after release” value in the data set with Avastin was “significant amounts”.
